Common to all, as to type: cell-based
One experiment has as its target human GluK1 (Homo sapiens, UniProt P39086). The experiment is described as follows: Glutamate-stimulated Ca2+-influx fluorescence assay in HEK293 cells, GluK1. As for the experimental part: Supplementary Figure 5. Effect of antagonist compounds on GluK1.
Averaged dose-response curves (average ± standard error of the mean) for inhibition with a […]
glutamate-stimulated Ca2+-influx assay from 3 or 4 measurements (n). IC50, Ki, and Hill coefficient nH (mean ± standard error of the mean) calculated with the Cheng-Prusoff equation were determined per measurement and are as shown. […]
HEK293 cell lines stably expressing homomeric glutamate receptors (GluA1, GluK1 and GluK2) were obtained from Eli Lilly and grown in DMEM (ThermoFisher) supplemented with 10% v/v fetal bovine serum (Sigma), 2 mM Glutamax™ (Gibco), 100 U/mL penicillin, 100 µg streptomycin and 250 ng amphotericin B (Sigma) in 5% CO2 at 37 °C. […]
(§1) Calcium influx fluorescence assay
100k cells/well were seeded into a 96-well plate precoated with poly-L-lysine and incubated for 12-16 hours until fully confluent. […] The time resolved fluorescence was recorded in a Flexstation 3 instrument (Molecular Devices). For each individual reading, the initial fluorescence of the well was measured for 20 seconds, after which the desired concentration of […]
response is measured as the peak change in fluorescence upon addition of agonist. […] Readings of antagonists used the […]
(§2) Fluorescence traces were performed in […]
triplicate on each plate and Ki values were determined on a plate-by-plate basis. […]

The target in experiment [1] is T1, GluN1-4a/GluN2D NMDARs (Rattus norvegicus, UniProt Q62645).
T1 construct: expressed in transfected cells; host or cells: Xenopus laevis oocytes injected with cRNA
T1 sequence (Q62645 28-1323, other chains not shown): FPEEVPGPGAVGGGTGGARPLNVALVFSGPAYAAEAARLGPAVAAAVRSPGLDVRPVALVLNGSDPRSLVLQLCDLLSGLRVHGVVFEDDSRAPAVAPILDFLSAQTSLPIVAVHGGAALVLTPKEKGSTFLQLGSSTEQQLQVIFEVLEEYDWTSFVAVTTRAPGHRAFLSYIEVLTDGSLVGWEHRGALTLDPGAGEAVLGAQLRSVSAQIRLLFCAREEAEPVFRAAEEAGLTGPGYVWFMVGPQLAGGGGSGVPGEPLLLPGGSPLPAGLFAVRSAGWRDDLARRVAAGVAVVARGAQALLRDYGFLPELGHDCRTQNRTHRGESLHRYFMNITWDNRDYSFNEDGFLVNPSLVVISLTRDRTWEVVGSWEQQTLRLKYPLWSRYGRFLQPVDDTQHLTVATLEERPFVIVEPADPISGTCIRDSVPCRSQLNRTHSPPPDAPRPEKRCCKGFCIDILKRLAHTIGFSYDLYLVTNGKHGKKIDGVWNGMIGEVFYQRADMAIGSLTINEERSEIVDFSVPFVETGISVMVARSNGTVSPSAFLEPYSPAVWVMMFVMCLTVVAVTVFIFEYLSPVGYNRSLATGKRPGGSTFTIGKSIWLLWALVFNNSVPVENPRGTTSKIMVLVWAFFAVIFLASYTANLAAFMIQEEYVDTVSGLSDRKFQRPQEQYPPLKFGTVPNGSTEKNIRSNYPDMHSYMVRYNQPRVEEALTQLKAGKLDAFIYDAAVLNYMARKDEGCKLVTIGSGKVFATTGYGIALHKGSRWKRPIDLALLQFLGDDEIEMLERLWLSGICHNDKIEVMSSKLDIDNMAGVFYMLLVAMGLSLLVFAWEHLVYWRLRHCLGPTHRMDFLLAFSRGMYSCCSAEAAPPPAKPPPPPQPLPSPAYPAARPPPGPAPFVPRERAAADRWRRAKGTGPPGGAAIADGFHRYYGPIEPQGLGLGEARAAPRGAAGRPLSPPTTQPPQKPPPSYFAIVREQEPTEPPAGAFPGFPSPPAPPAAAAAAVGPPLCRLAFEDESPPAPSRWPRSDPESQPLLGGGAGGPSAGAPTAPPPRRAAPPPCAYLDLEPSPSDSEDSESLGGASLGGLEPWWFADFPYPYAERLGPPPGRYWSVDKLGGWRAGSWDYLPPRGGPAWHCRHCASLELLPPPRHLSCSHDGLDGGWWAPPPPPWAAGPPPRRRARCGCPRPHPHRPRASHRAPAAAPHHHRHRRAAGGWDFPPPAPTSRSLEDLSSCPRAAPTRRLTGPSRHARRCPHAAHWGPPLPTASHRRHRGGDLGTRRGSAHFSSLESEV
The experiment is described as follows: TEVC electrophysiology on Xenopus laevis oocytes expressing GluN1-4a/GluN2D. An excerpt:
(§3) The chemical definition of UBP791 used in this study is a cis-racemic mixture of (2S,3R)- and (2R,3S)-isomers.
(§4) Plasmids (pSP or pCI_NEO) harboring rat GluN1 or GluN2 full-length subunits were linearized by restriction digestion and transcribed according to the manufacturer’s instructions (mMESSAGE mMachine SP6 or T7 kit, ThermoFisher Scientific). Recombinant rat GluN1-4a and GluN2 were expressed by co-injecting cRNA at a 1:2 (w/w) ratio into defolliculated X. laevis oocytes (amounts varied from 0.05–25 ng per oocyte). Two-electrode voltage-clamp recordings were performed 1–3 days after injection using agarose-tipped microelectrodes (0.4–1.2 MΩ) filled with 3 M KCl at a holding potential of −60 mV. The bath solution contained 5 mM HEPES, 100 mM NaCl, 0.3 mM BaCl2, 10 mM Tricine, at pH 7.4 (adjusted with KOH). […] For the statistical evaluation, we implemented pairwise F-tests to test variances, and then performed the Student t test with equal or unequal variances as determined previously, and accounted for multiple testing with the Bonferroni correction.

Experiment [2] has as its target T2, GluN1-4a/GluN2D NMDARs (Rattus norvegicus, UniProt P35439+Q62645).
T2 construct: expressed in transfected cells; host or cells: Xenopus laevis oocytes injected with cRNA
The description is as above. To be noted: for Ki: 100 μM glycine, 1 or 3 μM L-glutamate.
Description: as §3, §4

Experiment [3] deals with T3, GluN1-4a/GluN2B NMDARs (Rattus norvegicus, UniProt P35439+Q00960).
T3 construct: expressed in transfected cells; host or cells: Xenopus laevis oocytes injected with cRNA
The experiment is described as follows: TEVC electrophysiology on Xenopus laevis oocytes expressing GluN1-4a/GluN2B.
Description: as §3, §4

Experiment [4] addresses T4, GluN1-4a/GluN2B NMDARs (Rattus norvegicus, UniProt Q00960).
T4 construct: expressed in transfected cells; host or cells: Xenopus laevis oocytes injected with cRNA
The description is as above. To be noted: for fold difference of Ki vs. 2D (GluN2B): Ki GluN2B relative to Ki GluN2D (WT).
Description: as §3, §4

For the next experiment, the target named is GluA1 (Homo sapiens, UniProt P42261). The experiment in a line: Glutamate-stimulated Ca2+-influx fluorescence assay in HEK293 cells, GluA1. To be noted: for IC50: HEK293 cells, glutamate-stimulated Ca2+-influx. As for the experimental part:
(§5) HEK293 cell lines stably expressing homomeric glutamate receptors (GluA1, GluK1 and GluK2) were obtained from Eli Lilly and grown in DMEM (ThermoFisher) supplemented with 10% v/v fetal bovine serum (Sigma), 2 mM Glutamax™ (Gibco), 100 U/mL penicillin, 100 µg streptomycin and 250 ng amphotericin B (Sigma) in 5% CO2 at 37 °C. Cells were passaged using TrypLE (Gibco) as required before confluency and periodically treated with selection antibiotics (GluK1, GluK2 hygromycin B, 200 µg/mL; GluA1 geneticin™, 200 µg/mL).
as §1
(§6) 100k cells/well were seeded into a 96-well plate precoated with poly-L-lysine and incubated for 12-16 hours until fully confluent. The cell monolayer was washed twice with 100 µL Hanks Balanced Salt Solution supplemented with 5 mM CaCl2 and 20 mM HEPES (sHBSS), then incubated for 2-4 hours with 100 µL working solution of Ca6 dye (Molecular Devices) supplemented with a desensitization blocker (GluK1, GluK2 0.25 mg/mL concanavalin A, Sigma; GluA1 100 µM cyclothiazide, Sigma). The time resolved fluorescence was recorded in a Flexstation 3 instrument (Molecular Devices). For each individual reading, the initial fluorescence of the well was measured for 20 seconds, after which the desired concentration of […]
(§7) response is measured as the peak change in fluorescence upon addition of agonist. The viability of the cells was confirmed by determination of the concentration-response curve to the L-glutamate agonist and a standard antagonist for each plate. Readings of antagonists used the […]
as §2
(§8) triplicate on each plate and Ki values were determined on a plate-by-plate basis. Separate experiments (n) were performed on different passages of cells. […]

In experiment [5] the target is T5, GluN1-4a/GluN2A NMDARs (Rattus norvegicus, UniProt Q00959).
T5 construct: expressed in transfected cells; host or cells: Xenopus laevis oocytes injected with cRNA
The experiment is described as follows: TEVC electrophysiology on Xenopus laevis oocytes expressing GluN1-4a/GluN2A. To be noted: for fold difference of Ki vs. 2D (GluN2A): Ki GluN2A relative to Ki GluN2D (WT).
Description: as §3, §4

Experiment [6] concerns the target T6, GluN1-4a/GluN2A NMDARs (Rattus norvegicus, UniProt P35439+Q00959).
T6 construct: expressed in transfected cells; host or cells: Xenopus laevis oocytes injected with cRNA
The description is as above. To be noted: for Ki: Cheng–Prusoff from IC50 and L-glutamate EC50, 100 μM glycine, 1 or 3 μM L-glutamate.
Description: as §3, §4

Another experiment addresses GluK2 (Homo sapiens, UniProt Q13002). The experiment is described as follows: Glutamate-stimulated Ca2+-influx fluorescence assay in HEK293 cells, GluK2. To be noted: for IC50: HEK293 cells, glutamate-stimulated Ca2+-influx. As for the experimental part:
as §5, §1, §6, §7, §2, §8

The mark [7] stands for this setting: inhibition dose-response, 100 μM glycine, 1 or 3 μM L-glutamate.
[8] abbreviates: normalized response at 30 µM compound.
Setting [9] is: normalized response at 100 µM compound.

Several values for one entry are separate records, joined by “and”; a condition that tells them apart may be missing. Identical values can stand only once.

These results are taken from PMC6976569, “Structural basis of subtype-selective competitive antagonism for GluN2C/2D-containing NMDA receptors” (Nature Communications, 2020).

Chain of GluA1 (P42261 19-906): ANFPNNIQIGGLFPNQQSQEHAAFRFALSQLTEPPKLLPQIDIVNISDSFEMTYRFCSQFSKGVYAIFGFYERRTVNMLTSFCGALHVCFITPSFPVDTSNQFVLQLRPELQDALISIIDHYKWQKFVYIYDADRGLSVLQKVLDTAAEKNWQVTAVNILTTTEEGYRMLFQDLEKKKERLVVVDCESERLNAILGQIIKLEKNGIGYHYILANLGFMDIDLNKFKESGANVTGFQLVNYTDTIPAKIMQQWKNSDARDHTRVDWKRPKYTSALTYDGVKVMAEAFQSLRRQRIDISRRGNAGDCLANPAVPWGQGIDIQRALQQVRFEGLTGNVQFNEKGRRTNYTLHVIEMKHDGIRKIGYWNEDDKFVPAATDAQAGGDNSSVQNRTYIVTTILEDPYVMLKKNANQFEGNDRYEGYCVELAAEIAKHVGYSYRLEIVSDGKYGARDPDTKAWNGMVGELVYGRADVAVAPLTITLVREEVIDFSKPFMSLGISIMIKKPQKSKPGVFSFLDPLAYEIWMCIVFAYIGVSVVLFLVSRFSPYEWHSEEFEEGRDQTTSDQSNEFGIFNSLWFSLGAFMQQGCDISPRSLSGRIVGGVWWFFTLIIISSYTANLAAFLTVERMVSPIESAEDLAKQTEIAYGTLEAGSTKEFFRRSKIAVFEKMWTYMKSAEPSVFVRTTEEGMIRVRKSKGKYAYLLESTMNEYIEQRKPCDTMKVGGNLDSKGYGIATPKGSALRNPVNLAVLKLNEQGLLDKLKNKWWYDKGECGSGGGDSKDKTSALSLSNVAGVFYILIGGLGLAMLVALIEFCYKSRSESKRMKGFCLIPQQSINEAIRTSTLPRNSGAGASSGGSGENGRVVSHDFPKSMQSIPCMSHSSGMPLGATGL
Chain of GluK2 (Q13002 32-908): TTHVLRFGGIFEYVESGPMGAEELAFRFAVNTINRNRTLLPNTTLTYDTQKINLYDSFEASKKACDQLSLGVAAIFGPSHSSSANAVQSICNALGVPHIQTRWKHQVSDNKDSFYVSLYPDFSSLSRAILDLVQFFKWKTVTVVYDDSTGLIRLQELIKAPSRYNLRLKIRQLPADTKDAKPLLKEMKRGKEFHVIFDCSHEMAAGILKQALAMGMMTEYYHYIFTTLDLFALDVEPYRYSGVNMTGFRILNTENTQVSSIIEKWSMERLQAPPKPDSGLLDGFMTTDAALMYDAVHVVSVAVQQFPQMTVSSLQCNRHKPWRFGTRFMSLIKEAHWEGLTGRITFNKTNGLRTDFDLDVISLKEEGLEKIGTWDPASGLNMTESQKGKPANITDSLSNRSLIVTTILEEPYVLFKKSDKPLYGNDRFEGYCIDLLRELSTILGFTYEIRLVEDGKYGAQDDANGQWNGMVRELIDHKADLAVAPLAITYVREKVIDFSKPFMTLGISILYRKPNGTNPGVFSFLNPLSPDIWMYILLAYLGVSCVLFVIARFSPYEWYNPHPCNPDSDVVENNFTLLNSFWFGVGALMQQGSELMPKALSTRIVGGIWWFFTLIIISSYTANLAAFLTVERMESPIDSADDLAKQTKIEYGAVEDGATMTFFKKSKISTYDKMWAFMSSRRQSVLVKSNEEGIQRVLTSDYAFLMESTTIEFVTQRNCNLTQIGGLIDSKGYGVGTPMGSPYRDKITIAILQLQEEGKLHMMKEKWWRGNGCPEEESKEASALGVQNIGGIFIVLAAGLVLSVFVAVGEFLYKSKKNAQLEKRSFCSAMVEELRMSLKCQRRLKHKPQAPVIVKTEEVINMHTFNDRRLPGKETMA
T2 sequence (Q62645 28-1323, other chains not shown): as the sequence (Q62645 28-1323, other chains not shown) above
T6 sequence (Q00959 23-1464, other chains not shown): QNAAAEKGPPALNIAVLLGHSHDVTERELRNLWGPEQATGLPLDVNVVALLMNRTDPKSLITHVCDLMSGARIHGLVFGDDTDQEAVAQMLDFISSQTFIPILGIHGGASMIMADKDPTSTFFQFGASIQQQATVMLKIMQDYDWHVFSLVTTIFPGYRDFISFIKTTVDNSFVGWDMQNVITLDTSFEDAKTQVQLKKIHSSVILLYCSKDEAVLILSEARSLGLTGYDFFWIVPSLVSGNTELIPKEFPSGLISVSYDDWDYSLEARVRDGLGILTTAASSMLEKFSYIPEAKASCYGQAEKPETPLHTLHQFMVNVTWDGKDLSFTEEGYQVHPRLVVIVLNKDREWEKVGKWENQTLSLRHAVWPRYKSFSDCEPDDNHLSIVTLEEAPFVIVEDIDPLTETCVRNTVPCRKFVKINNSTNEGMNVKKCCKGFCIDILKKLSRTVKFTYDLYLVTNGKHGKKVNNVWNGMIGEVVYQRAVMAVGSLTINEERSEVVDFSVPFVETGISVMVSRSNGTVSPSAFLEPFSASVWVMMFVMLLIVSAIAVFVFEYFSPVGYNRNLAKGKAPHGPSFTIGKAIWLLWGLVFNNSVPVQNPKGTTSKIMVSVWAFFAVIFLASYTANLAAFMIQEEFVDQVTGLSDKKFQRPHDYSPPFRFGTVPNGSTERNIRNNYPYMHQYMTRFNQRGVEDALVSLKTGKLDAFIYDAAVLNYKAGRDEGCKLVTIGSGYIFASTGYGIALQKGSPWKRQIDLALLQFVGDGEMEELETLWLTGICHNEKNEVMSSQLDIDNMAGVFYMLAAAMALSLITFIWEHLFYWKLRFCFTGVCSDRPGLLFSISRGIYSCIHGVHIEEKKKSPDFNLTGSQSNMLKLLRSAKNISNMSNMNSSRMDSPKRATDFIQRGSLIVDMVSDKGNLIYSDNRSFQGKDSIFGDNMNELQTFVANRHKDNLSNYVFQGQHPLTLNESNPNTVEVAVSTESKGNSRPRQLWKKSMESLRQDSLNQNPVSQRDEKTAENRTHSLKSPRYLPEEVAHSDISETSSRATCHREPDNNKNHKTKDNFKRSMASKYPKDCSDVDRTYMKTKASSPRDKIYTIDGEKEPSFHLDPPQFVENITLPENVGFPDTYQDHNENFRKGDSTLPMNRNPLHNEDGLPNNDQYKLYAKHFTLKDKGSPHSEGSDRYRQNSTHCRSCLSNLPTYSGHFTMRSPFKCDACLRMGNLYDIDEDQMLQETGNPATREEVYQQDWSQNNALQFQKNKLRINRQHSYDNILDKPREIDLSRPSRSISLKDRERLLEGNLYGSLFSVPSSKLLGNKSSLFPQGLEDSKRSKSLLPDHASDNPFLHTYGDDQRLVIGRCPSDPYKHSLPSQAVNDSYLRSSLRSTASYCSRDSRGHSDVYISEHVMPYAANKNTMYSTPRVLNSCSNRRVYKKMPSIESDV

A word on the Ki: it is the equilibrium dissociation constant of an inhibitor or competing ligand from its target. A high value points to a looser hold on the target. For orientation: IC50 means the point on the concentration scale where inhibition reaches its midpoint. `O=C(O)CCc1ccc2c(ccc3cc(C(=O)N4CCN[C@@H](C(=O)O)[C@H]4C(=O)O)ccc32)c1` (relative stereo) [UBP791, (2S*,3R*)-1-(7-(2-carboxyethyl)phenanthrene-2-carbonyl)piperazine-2,3-dicarboxylic acid]: the Ki is approximately 100 µM at human GluK1; 90 ± 20 nM at GluN1-4a/GluN2D NMDARs [2] (Cheng–Prusoff from IC50 and L-glutamate EC50); 80 to 90 nM at GluN1-4a/GluN2D NMDARs [2] (Cheng–Prusoff); 1380 ± 360 nM at GluN1-4a/GluN2B NMDARs [3]; 4.07 µM and ~4 µM on GluN1-4a/GluN2A NMDARs [6]. Also, the “Hill coefficient (nH)” value at GluN1-4a/GluN2D NMDARs [1] (setting [7]) worked out at 1.40 ± 0.02; on GluN1-4a/GluN2A NMDARs [5] (setting [7]) it was 1.19 ± 0.07. Further, the IC50 at GluN1-4a/GluN2D NMDARs [2] is 560 ± 10 nM; against GluA1, more than 100 µM; at GluN1-4a/GluN2A NMDARs [6], 6.31 ± 0.4 µM; against GluK2, more than 100 µM. Further, at GluN1-4a/GluN2B NMDARs [4], the “fold difference of Ki vs. 2D (GluN2B)” value is reported as ~ 16 fold. In addition, at GluN1-4a/GluN2B NMDARs [4] (ratio of Ki values), the “GluN2C/2D-selectivity over GluN2B” value is given as 16 fold. Also, the “Mean Response” value at GluA1 (setting [8]) was 94.1%; on GluA1 (setting [9]) it was 86.0%; at GluK2 (setting [8]) it was 96.1%; at GluK2 (setting [9]), 97.8%. For the same molecule, the “fold difference of Ki vs. 2D (GluN2A)” value at GluN1-4a/GluN2A NMDARs [5] was ~ 47 fold. Also, at GluN1-4a/GluN2A NMDARs [5] (ratio of Ki values), the “GluN2C/2D-selectivity over GluN2A” value is recorded as 47 fold.
`O=C(O)C=Cc1ccc2c(ccc3cc(C(=O)N4CCN[C@@H](C(=O)O)[C@H]4C(=O)O)ccc32)c1` (relative stereo) [UBP1700, (2S*,3R*)-1-(7-(2-carboxyvinyl)phenanthrene-2-carbonyl)piperazine-2,3-dicarboxylic acid]: the Ki on human GluK1 was approximately 32 µM; at GluN1-4a/GluN2D NMDARs [2] (Cheng–Prusoff), 7 nM and 7 to 9 nM; at GluN1-4a/GluN2B NMDARs [3], 350 ± 50 nM; at GluN1-4a/GluN2A NMDARs [6], 0.43 ± 0.04 µM. Also, the “fold higher affinity on GluN2D compared to UBP145 and UBP161” value on GluN1-4a/GluN2D NMDARs [1] (peer review file, authors' response) is more than 140 fold. Further, at GluN1-4a/GluN2B NMDARs [4], the “fold difference of Ki vs. 2D (GluN2B)” value is ~ 52 fold and 52 fold. Also, the “selectivity for GluN2C over GluN2B” value at GluN1-4a/GluN2B NMDARs [4] (ratio of Ki values) was found to be 40 fold. Besides, the IC50 against GluA1 and against GluK2 was more than 100 µM each time. For the same molecule, the “Mean Response” value on GluA1 (setting [8]) was found to be 105.1%; at GluA1 (setting [9]) it was 101.8%; on GluK2 (setting [8]), 76.5%; at GluK2 (setting [9]), 90.4%. Moreover, the “fold difference of Ki vs. 2D (GluN2A)” value on GluN1-4a/GluN2A NMDARs [5] was ~ 64 fold. The “selectivity for GluN2C over GluN2A” value on GluN1-4a/GluN2A NMDARs [5] (ratio of Ki values) is 50 fold.
